The text below walks through data of ChEMBL document CHEMBL5634100, “Novel spiro[pyrrolidine-2,3'-quinoline]-2'-one derivatives containing piperazine fragment as potential chitin synthase inhibitors and antifungal agents: Design, synthesis and biological evaluation” (Eur J Med Chem, 2023).

Test [1] concerns Candida tropicalis. As to the kind of experiment: Inhibition of Candida tropicalis ATCC 750 chitin synthase using UDP-GlcNAc as substrate at 300 ug/ml by TMB based microplate analyzer relative to control. The settings on record: dose 300.0 µg/ml.
Test [2] in a line: Inhibition of Candida tropicalis ATCC 750 chitin synthase using UDP-GlcNAc as substrate by TMB based microplate analyzer.
Test [3] concerns Candida albicans. The test is described as follows: Antimicrobial activity against Candida albicans ATCC 76615 incubated for 24 hrs by two fold serial dilution method. The format is functional.
Test [4] deals with Aspergillus flavus. As to the kind of experiment: Antimicrobial activity against Aspergillus flavus ATCC 16870 incubated for 24 hrs by two fold serial dilution method. Format: functional.
The subject of test [5] is Aspergillus fumigatus. The test is described as follows: Antimicrobial activity against Aspergillus fumigatus GIMCC 3.19 incubated for 24 hrs by two fold serial dilution method. Format: functional.
The test system of test [6] is Cryptococcus neoformans. The test is described as follows: Antimicrobial activity against Cryptococcus neoformans ATCC 32719 incubated for 24 hrs by two fold serial dilution method. The format is functional.
The test system of test [7] is Candida albicans. The test is described as follows: Antimicrobial activity against micafungin-resistant Candida albicans ATCC 76615R incubated for 24 hrs by two fold serial dilution method. Format: functional.
In test [8] the test system is Candida albicans. The test is described as follows: Antimicrobial activity against fluconazole-resistant Candida albicans ATCC 76615R incubated for 24 hrs by two fold serial dilution method. The format is functional.
Test [9] deals with Aspergillus flavus. As to the kind of experiment: Antimicrobial activity against Fluconazole-resistant Aspergillus flavus ATCC 16870R incubated for 24 hrs by two fold serial dilution method. The format is functional.
The test system of test [10] is Aspergillus fumigatus. As to the kind of experiment: Antimicrobial activity against Fluconazole-resistant Aspergillus fumigatus GIMCC 3.19R incubated for 24 hrs by two fold serial dilution method. The format is functional.
In test [11] the test system is Cryptococcus neoformans. The test is described as follows: Antimicrobial activity against Fluconazole-resistant Cryptococcus neoformans ATCC 32719R incubated for 24 hrs by two fold serial dilution method. Format: functional.
Test [12] deals with Candida albicans. As to the kind of experiment: Antimicrobial activity against Candida albicans ATCC 76615 assessed as inhibition of cell wall synthesis in presence of sorbitol. The format is functional.
For test [13], the system named is Aspergillus flavus. The test is described as follows: Antimicrobial activity against Aspergillus flavus ATCC 16870 assessed as inhibition of cell wall synthesis in presence of sorbitol. Format: functional.
The test system of test [14] is Aspergillus fumigatus. As to the kind of experiment: Antimicrobial activity against Aspergillus fumigatus GIMCC 3.19 assessed as inhibition of cell wall synthesis in presence of sorbitol. The format is functional.
In test [15] the test system is Cryptococcus neoformans. As to the kind of experiment: Antimicrobial activity against Cryptococcus neoformans ATCC 32719 assessed as inhibition of cell wall synthesis in presence of sorbitol. The format is functional.

The structures appear in SMILES notation. In brackets after ≈: the same amount, converted by molar mass. Numbered stars: 1 amine (or outer) side, 2 acyl side, 3 side chain; on linkers, the order of the positions; unused ones are H or OH. Bridge positions count the residues as written; N and C are the ends. Square brackets hold non-standard residues; d marks the D form. Peptide text beside a SMILES is read from it. * marks the point of attachment. hTyr(3S-OH,4S-OH,3'-OSO3H) = N[C@H](C(=O)O)[C@H](O)[C@@H](O)c1ccc(O)c(OS(=O)(=O)O)c1; Orn(4R-OH,5R-OH) = O=C([C@H](C[C@@H](O)[C@@H](O)N[*:3])N[*:1])[*:2]; Pro(3S-OH,4S-Me) = C[C@H]1CN[C@H](C(=O)O)[C@H]1O; X1 = CCCCCOc1ccc(-c2cc(-c3ccc(C(=O)*)cc3)no2)cc1; Gln(3R-OH) = NC(=O)C[C@@H](O)[C@H](N)C(=O)O; Hyp = O=C(O)[C@@H]1C[C@@H](O)CN1 Some results are limits rather than exact numbers.

Regarding `O=C(c1cccc(Br)c1)N1CCN(CC(=O)N2CCCC23Cc2ccccc2NC3=O)CC1` (stereo not given), in test [1], the inhibition turned out to be 58.8%. The same compound came in with an IC50 in test [2] of 320 µM. The MIC is 8 µg/mL (≈ 15.6 µM) in test [3], 16 µg/mL (≈ 31.3 µM) in [4], 16 µg/mL (≈ 31.3 µM) in test [5] and 32 µg/mL (≈ 62.6 µM) in [6].

`O=C(c1ccccc1Cl)N1CCN(CC(=O)N2CCCC23Cc2ccccc2NC3=O)CC1` (stereo not given) gave an inhibition in [1] of 61.4%. The MIC came out at 16 µg/mL (≈ 34.3 µM) in [3], 16 µg/mL (≈ 34.3 µM) in test [4], 16 µg/mL (≈ 34.3 µM) in [5] and 32 µg/mL (≈ 68.5 µM) in test [6].

`CCc1ccc(C(=O)N2CCN(CC(=O)N3CCCC34Cc3ccccc3NC4=O)CC2)cc1` (stereo not given) registered an inhibition in [1] of 52.8%. The MIC was found to be 32 µg/mL (≈ 69.5 µM) in test [3], 128 µg/mL (≈ 278 µM) in [4], 64 µg/mL (≈ 139 µM) in test [5] and 32 µg/mL (≈ 69.5 µM) in [6].

On to `CCCCCOc1ccc(-c2cc(-c3ccc(C(=O)N[C@H]4C[C@@H](O)[C@@H](O)NC(=O)[C@@H]5[C@@H](O)[C@@H](C)CN5C(=O)[C@H]([C@H](O)CC(N)=O)NC(=O)[C@H]([C@H](O)[C@@H](O)c5ccc(O)c(OS(=O)(=O)O)c5)NC(=O)[C@@H]5C[C@@H](O)CN5C(=O)[C@H]([C@@H](C)O)NC4=O)cc3)no2)cc1` [MICAFUNGIN] (X1-[Orn(4R-OH,5R-OH)]T[Hyp][hTyr(3S-OH,4S-OH,3'-OSO3H)][Gln(3R-OH)][Pro(3S-OH,4S-Me)]; lactam 1-C), for which the MIC in [7] was more than 256 µg/mL.

`OC(Cn1cncn1)(Cn1cncn1)c1ccc(F)cc1F` [FLUCONAZOLE]: the MIC in [3] is 4 µg/mL (≈ 13.1 µM); in test [4], 8 µg/mL (≈ 26.1 µM); in test [5], 4 µg/mL (≈ 13.1 µM); in [6], 8 µg/mL (≈ 26.1 µM); in test [8], more than 256 µg/mL; in test [9] it was more than 256 µg/mL. Moreover, the MIC in test [10] and in [11] was more than 256 µg/mL in each case.

As for `O=C(c1ccccc1)N1CCN(CC(=O)N2CCCC23Cc2ccccc2NC3=O)CC1` (stereo not given), the inhibition in [1] came out at 47%. Moreover, the MIC in test [3] was determined as 16 µg/mL (≈ 37 µM); in test [4], 32 µg/mL (≈ 74 µM); in test [5] it was 32 µg/mL (≈ 74 µM); in test [6], 64 µg/mL (≈ 148 µM).

In turn, `O=C(c1ccc(F)cc1)N1CCN(CC(=O)N2CCCC23Cc2ccccc2NC3=O)CC1` (stereo not given) showed an inhibition in test [1] of 76.7%. Further, half-maximal inhibition in [2] (IC50) was put at 130 µM. Besides, the minimal inhibitory concentration (MIC) in test [3] stood at 4 µg/mL (≈ 8.88 µM); in [4], 8 µg/mL (≈ 17.8 µM); in test [5] it was 8 µg/mL (≈ 17.8 µM); in [6], 16 µg/mL (≈ 35.5 µM); in test [12] it was 64 µg/mL; in [13], 64 µg/mL. Moreover, the MIC was 256 µg/mL in test [14]; 128 µg/mL in test [15]; 64 µg/mL (≈ 142 µM) in test [8]; 64 µg/mL (≈ 142 µM) in [9]; 64 µg/mL (≈ 142 µM) in test [10]; 64 µg/mL (≈ 142 µM) in test [11]. Besides, it took 64 µg/mL (≈ 142 µM) to inhibit growth in test [7] (MIC).
